Measured values: paper PMC3499586, “Heterotrimeric G-protein Signaling Is Critical to Pathogenic Processes in Entamoeba histolytica” (PLoS Pathogens, 2012)

T1: EhRGS-RhoGEF (E. histolytica, UniProt C4LYV4 1-519)
T1 chain: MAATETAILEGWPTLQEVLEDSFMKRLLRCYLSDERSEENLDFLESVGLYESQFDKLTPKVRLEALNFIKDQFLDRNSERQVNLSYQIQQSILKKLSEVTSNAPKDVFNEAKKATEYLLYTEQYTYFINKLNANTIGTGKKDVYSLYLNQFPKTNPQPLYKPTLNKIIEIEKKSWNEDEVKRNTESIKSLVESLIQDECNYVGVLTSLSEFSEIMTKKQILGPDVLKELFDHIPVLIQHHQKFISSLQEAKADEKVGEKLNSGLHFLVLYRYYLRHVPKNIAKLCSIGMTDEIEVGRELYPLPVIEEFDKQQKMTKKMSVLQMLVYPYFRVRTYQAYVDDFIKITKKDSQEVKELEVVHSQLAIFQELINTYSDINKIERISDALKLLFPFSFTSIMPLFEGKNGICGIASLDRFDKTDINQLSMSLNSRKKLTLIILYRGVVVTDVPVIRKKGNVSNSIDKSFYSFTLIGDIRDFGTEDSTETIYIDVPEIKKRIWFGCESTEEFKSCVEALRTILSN

B1: EhGα1 (recombinant, purified from E. coli) (natural protein)
chain: MGCGQSKDNSIDKQIVEMAKSKPITVMLLGSGESGKSTIAKQLKILFGGGFPEQERATHKSSICSNVVTCMRTLIEQSAILNHPMKYQPKSKEFTTEDPVTLPFSPELVGDVEALWADEGIQATYEESAKFQLPDCAKYLFENVKRIAMEDYVPTEEDLIHNRTKTTGIHEYDFVVKDIPFHLIDVGGQRSERKKWVSFFSDVDCAIFVTSLAEYDMKLYEDGNTSRLTESIAVFKDIMTNEFLKGAVKLIFLNKMDLFEEKLTKVPLNTIFPEYTGGDNAVMGAQYIQQLFTGKLQTEEMNISGADGTANIEGAVNEKVYTNPTNATDGSNIKRVFMLAVDVIMKNMAANGKMRPTK

Columns and labels:
human Gαi1 = target: T2, human Gαi1 (Homo sapiens, UniProt P63096); experiment: […]GTPγS radionucleotide binding; details: 30 °C; association limited by spontaneous GDP release; labelled compound; a rate, not an affinity; figure legend gives 0.06 ±0.01
T2 construct: gene GNAI1; purified protein; details not in main text
T2 sequence (P63096 2-354): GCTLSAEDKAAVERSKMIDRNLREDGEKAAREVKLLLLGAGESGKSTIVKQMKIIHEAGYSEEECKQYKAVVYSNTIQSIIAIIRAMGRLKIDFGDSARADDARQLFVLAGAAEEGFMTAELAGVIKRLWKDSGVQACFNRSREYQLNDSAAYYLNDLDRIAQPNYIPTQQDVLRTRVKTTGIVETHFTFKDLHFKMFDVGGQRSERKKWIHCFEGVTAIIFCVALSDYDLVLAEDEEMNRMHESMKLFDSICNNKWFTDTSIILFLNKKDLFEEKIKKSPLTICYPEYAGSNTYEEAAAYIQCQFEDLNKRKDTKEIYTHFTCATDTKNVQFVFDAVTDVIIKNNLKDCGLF

EhGα1 = target: T3, EhGα1 (Entamoeba histolytica, UniProt C4M483); experiment: […]GTPγS radionucleotide binding; details: 30 °C; association limited by spontaneous GDP release; labelled compound; a rate, not an affinity
T3 construct: gene EHI_140350; E. coli; N-terminal TEV-cleavable His6 tag; HM-1:IMSS used for trophozoite work

EhRGS-RhoGEF = target: T1, EhRGS-RhoGEF; experiment: SPR

| Molecule | kobs (human Gαi1) | kobs (EhGα1) | Kd (EhRGS-RhoGEF) |
| --- | --- | --- | --- |
| Nc1nc2c(ncn2[C@@H]2O[C@H](COP(=O)(O)OP(=O)(O)OP(O)(O)=S)[C@@H](O)[C@H]2O)c(=O)[nH]1 [GTPγS] | 0.064 min⁻¹ | 0.27 ± 0.06 min⁻¹ | – |
| B1 | – | – | 2100 nM |
